Results as given in patent US11883441B2, “Compositions and methods for inhibiting seizures” (The Regents of the University of California, priority 2016, dated 2024).

Tests used:
[1] = system: gamma-glutamyltranspeptidase (GGT); experiment: GGT activity assay in fecal samples; format: biochemical; conditions: fecal samples exposed in vitro, 500 uM
Description: GGT activity was measured as previously described in van der Stel, Frontiers in Microbiology (6), 567 (2015). For anaerobic cultures, bacteria were seeded at 3×10^5 cfu/ml in CD- and KD-based media. 1 ml bacterial suspension was pelleted and frozen at −80° C. for 1 hr. Separate aliquots of the same suspension were plated in BHI mucin agar media or RCM and incubated at 37° C. in a Coy anaerobic chamber for later data normalization by bacterial cfu. Pellets were then resuspended in 250 ul lysis buffer (50 mM Tris-HCl with 1 ug/ml lysozyme) and incubated on ice for 30 min. For fecal samples, one pellet was weighed and homogenized in 1 ml lysis buffer. Bacterial and fecal suspensions were then sonicated (QSonica 125) and centrifuged at 12000×g for 10 min at 4° C. […] Absorbance at 405 nm denoting production of 3-carboxy-4-nitroaniline was measured every minute for 1 hr at 37° C. using an automated multimode plate reader (Biotek Synergy H1).
To gain insight into whether the KD and interactions between A. muciniphila and Parabacteroides spp. suppressed bacterial gamma-glutamylation in vivo, GGT activity was measured in fecal samples collected from SPF or A. muciniphila and Parabacteroides spp.-enriched mice fed the CD or KD.

Kcna1−/− mice = experiment: Kcna1 seizure recordings (EEG); format: in vivo, mouse; conditions: CD-fed SPF Kcna1−/− mice; 13.3 mg/kg oral gavage every 12 hours
Description: EEG Implantation and Recovery. EEGs were recorded from male and female Kcna1^−/− mice at 6-7 weeks of age. Kcna1^+/+ littermates were used as controls. […] Data presented include both sexes. Mice were anesthetized with isoflurane (5% induction, 2% maintenance) and eye ointment applied to each eye. Fur was removed along the head, and the area was cleaned with three alternative scrubs of chlorohexidine and 70% isopropanol. In a biosafety cabinet, mice were positioned in a stereotaxic apparatus (Harvard Biosciences) and 1 mg/kg lidocaine+1 mg/kg bupivacaine was applied locally along the incision site. […]
During EEG recordings animals were freely moving and maintained on experimental diet. […] Simultaneous video recordings of behavioral seizures were correlated with EEG recordings and scored based on an adapted Racine scale and defined by 5 stages: 1) myoclonic jerk, 2) head stereotypy and facial clonus, 3) bilateral and alternating forelimb/hindlimb clonus, 4) rearing and falling, and 5) generalized tonic-clonic episodes. Data were analyzed by a blinded researcher using Neuroscore CNS Software (DSI). EEG signals were filtered using a 10 Hz high pass filter, and seizure events were detected by blinded manual scoring. […]
For wild type mice: 4-week old SPF Swiss Webster mice were fed CD ad libitum for 14 days. […] Seizures were recorded over 3 days by EEG beginning 2 hours after the final gavage. […]

Swiss Webster mice = experiment: 6-Hz psychomotor seizure assay; format: in vivo, mouse
Description: All subsequent experimental cohorts contained male mice. One drop (˜50 ul) of 0.5% tetracaine hydrochloride ophthalmic solution was applied to the corneas of each mouse 10-15 min before stimulation. Corneal electrodes were coated with a thin layer of electrode gel (Parker Signagel). A constant-current current device (ECT Unit 57800, Ugo Basile) was used to deliver current at 3 sec duration, 0.2 ms pulse-width and 6 pulses/s frequency. CC50 (the intensity of current required to elicit seizures in 50% of the experimental group) was measured as a metric for seizure susceptibility. […] Each mouse was seizure-tested only once, and thus at least n>6 mice were used to adequately power each experiment group. To determine CC50s for each experimental group, 24 mA currents were administered to the first mouse per experimental group per cohort, followed by fixed increases or decreases by 2 mA intervals. […] Locomotor behavior was recorded using Ethovision XT software (Noldus) and quantitative measures for falling, tail dorsiflexion (Straub tail), forelimb clonus, eye/vibrissae twitching and behavioral remission were scored manually. […] Latency to exploration (time elapsed from when an experimental mouse is released into the observation cage (after corneal stimulation) to its first lateral movement) was scored using Ethovision and manually with an electronic timer. […]

A. muciniphila = experiment: Cross-feeding in vitro assay, A. muciniphila growth; format: cell-based, Akkermansia muciniphila; conditions: exposed to P. merdae pre-treated with 500 uM for 2 hours; 24 hours after incubation; vs vehicle-treated P. merdae
Description: (§1) Cross-feeding was measured as previously described. A. muciniphila was embedded at 2×10^6 cfu/ml in 5 ml pre-reduced CD or KD-based liquid media supplemented with 1% agar at the bottom of an anaerobic tube, and P. merdae was overlaid above it at 6×10^6 cfu/ml in 5 ml pre-reduced M9 minimal media. Diet-based media were generated by aseptically suspending mouse KD vs. CD diets, described above, to 2 kcal/ml in M9 media. Pilot experiments confirmed no ectopic translocation of embedded A. muciniphila from the agar compartment into the above M9 liquid compartment. For each time point, aliquots were taken from the top and bottom compartments, plated in a dilution series in rich media (RCM for P. merdae and BHI+0.05% mucins for A. muciniphila), and colonies were counted. For GGsTop pre-treatment experiments, P. merdae was incubated with 500 uM GGsTop vs vehicle in RCM media at 37° C. for 2 hours and then washed with sterile media.

P. merdae = experiment: Cross-feeding in vitro assay, P. merdae growth and viability; format: cell-based; conditions: pre-treatment 500 uM, 2 hours, pilot experiments
Description: as §1

Compound | GGT activity signal of fecal samples [1] | Seizures per day (Kcna1−/− mice) | Seizure threshold (Swiss Webster mice; SPF CD mice gavaged for 3 days, 13.3 mg/kg every 12 hours) | A. muciniphila growth (A. muciniphila) | P. merdae viability (P. merdae) | Protection against 6-Hz seizures / seizure threshold (Swiss Webster mice; Abx-treated SPF mice gavaged with 10^9 cfu bacteria, fed KD, tested at 14 days)
COP(=O)(CCC(N)C(=O)O)Oc1cccc(CC(=O)O)c1 (stereo not drawn) [GGsTop, 3-[[(3-amino-3-carboxypropyl)methoxyphosphinyl]oxy]benzeneacetic acid] | eliminated the detected signals | significant decrease in seizures per day | increases in seizure thresholds | increased growth | no significant effect | –
Bifidobacterium longum | – | – | – | – | – | no effect
